In one test the target is T1, F1F0-ATPase (Bos taurus, UniProt P13621).
T1 construct: from tissue
As to the kind of experiment: Inhibition of F1F0-ATPase activity in synthesizing ATP. Format: biochemical. To be noted: inhibition of ATP synthesis; detection limit IC50=16 μM; read-out: ATP Syn IC50. Here is the method:
(§1) Exemplary compounds described in above Examples were tested for activity against F1F0-ATPase by measuring the ability of the compounds to inhibit ATP synthesis. In addition, the compounds were assessed for cytotoxicity in Ramos cells. Inhibition of F1F0-ATPase activity in synthesizing ATP and cytotoxicity in Ramos cells were measured according to the procedures described in K. M. Johnson et al. Chemistry & Biology 2005, 12, 485-496.

The subject of a further test is Ramos cells. Put plainly: Cytotoxicity in Ramos cells. The format is cell-based. Conditions: detection limit EC50=16 μM, read-out: Ramos Cell EC50. As to the method:
as §1

This passage reports IC50 and EC50 results from US9920012B2, “Indazole guanidine F1F0-ATPase inhibitors and therapeutic uses thereof” (Lycera Corporation, priority 2012, dated 2018).

Where a name gives a salt, the structure may show the parent alone. Read-outs that look alike come from different tables or passages of the source.

A word on the IC50: it is the concentration needed to halve the response being measured. Broadly, the EC50 is the midpoint of the concentration-response curve.

Take `COC[C@H](C)N/C(=N/C(=O)c1ccc(F)c(F)c1)Nc1n[nH]c2cc(Cl)ccc12` [Compound 1, (S)-N-(((6-Chloro-1H-indazol-3-yl)amino)((1-methoxypropan-2-yl)amino)methylene)-3,4-difluorobenzamide]: the IC50 on F1F0-ATPase was below 5 µM. The EC50 in the test with Ramos cells (Homo sapiens) is below 5 µM.
For `CC(C)(O)CN/C(=N/C(=O)c1ccc(Cl)cc1)Nc1n[nH]c2cc(F)ccc12` [Compound 2, 4-Chloro-N-((6-fluoro-1H-indazol-3-ylamino)((2-hydroxy-2-methylpropyl)amino)methylene)benzamide], the IC50 on F1F0-ATPase was below 5 µM. The EC50 with Ramos cells (Homo sapiens) is above 16 µM.
Consider `COC[C@H](C)N/C(=N/C(=O)c1ccc(F)c(F)c1)Nc1n[nH]c2cc(C(F)(F)F)ccc12` [Compound 3, (S)-3,4-Difluoro-N-(((1-methoxypropan-2-yl)amino)((6-(trifluoromethyl)-1H-indazol-3-yl)amino)methylene)benzamide], for which the concentration for half-maximal inhibition (IC50) at F1F0-ATPase was below 5 µM. The EC50 in the test on Ramos cells (Homo sapiens) is below 5 µM.
In the case of `COC[C@H](C)NC(=NC(=O)c1ccc(F)c(F)c1)Nc1nn(C(=O)[C@@H](N)C(C)C)c2cc(C(F)(F)F)ccc12` [Compound 6, N-(((1-((S)-2-Amino-3-methylbutanoyl)-6-(trifluoromethyl)-1H-indazol-3-yl)amino)(((S)-1-methoxypropan-2-yl)amino)methylene)-3,4-difluorobenzamide hydrochloride salt], the IC50 at F1F0-ATPase fell in the range of 5 to 16 µM. For the same compound, the EC50 in the test on Ramos cells (Homo sapiens) was above 16 µM.
On to `CC1(N/C(=N/C(=O)c2ccc(Cl)cc2)Nc2n[nH]c3ccccc23)CCC1` [Compound A-1], for which the IC50 on F1F0-ATPase was below 5 µM. In the test with Ramos cells (Homo sapiens), the EC50 fell in the range of 5 to 16 µM.
With `CC(C)N/C(=N/C(=O)c1cccc(F)c1)Nc1n[nH]c2ccc(C(F)(F)F)cc12` [Compound A-2], the IC50 at F1F0-ATPase was below 5 µM. For the same compound, the EC50 with Ramos cells is above 16 µM.
In the same order, the values of `CC(C)(C)N/C(=N/C(=O)c1ccc(F)c(F)c1)Nc1n[nH]c2ccc(F)cc12` [Compound A-3] are below 5 µM and 5 to 16 µM.
On to `CC(C)CN/C(=N/C(=O)c1ccc(F)c(F)c1)Nc1n[nH]c2ccc(F)cc12` [Compound A-4], for which the IC50 at F1F0-ATPase was below 5 µM. In addition, the EC50 in the test with Ramos cells was in the range of 5 to 16 µM.
For `CC(C)(C)N/C(=N/C(=O)c1ccc(F)c(F)c1)Nc1n[nH]c2cccc(F)c12` [Compound A-5] the same measures were below 5 µM and below 5 µM.
On to `CC(C)CN/C(=N/C(=O)c1ccc(F)c(F)c1)Nc1n[nH]c2cccc(F)c12` [Compound A-6], for which the IC50 at F1F0-ATPase is above 16 µM. In the test on Ramos cells, the EC50 was above 16 µM.
`CC(C)(C)N/C(=N/C(=O)c1ccc(F)c(F)c1)Nc1n[nH]c2cc(C(F)(F)F)ccc12` [Compound A-7]: the IC50 at F1F0-ATPase was above 16 µM. For the same compound, the EC50 with Ramos cells is below 5 µM.
For `CC(C)CN/C(=N/C(=O)c1ccc(F)c(F)c1)Nc1n[nH]c2cc(C(F)(F)F)ccc12` [Compound A-8], the IC50 at F1F0-ATPase is below 5 µM. Further, the EC50 in the test on Ramos cells was below 5 µM.
Turning to `CCC(C)N/C(=N/C(=O)c1ccc(F)c(F)c1)Nc1n[nH]c2cc(C(F)(F)F)ccc12` (stereo not drawn) [Compound A-9], on F1F0-ATPase, the IC50 is below 5 µM. Besides, in the test on Ramos cells, the concentration for a half-maximal effect (EC50) is below 5 µM.
`CC(C)N/C(=N/C(=O)c1ccc(F)c(F)c1)Nc1n[nH]c2cc(C(F)(F)F)ccc12` [Compound A-10]: at F1F0-ATPase, the IC50 is below 5 µM. The EC50 with Ramos cells is below 5 µM.
Regarding `CCOCCCNC(=NC(=O)c1ccc(F)c(F)c1)Nc1n[nH]c2cc(C(F)(F)F)ccc12` [Compound A-11], the IC50 at F1F0-ATPase was below 5 µM. Besides, the concentration giving a half-maximal response (EC50) in the test with Ramos cells is below 5 µM.
On to `CCOCCN/C(=N/C(=O)c1ccc(F)c(F)c1)Nc1n[nH]c2cc(C(F)(F)F)ccc12` [Compound A-12], for which the half-maximal inhibitory concentration (IC50) at F1F0-ATPase was below 5 µM. In the test on Ramos cells, the EC50 is below 5 µM.
Turning to `CC(C)(C)N/C(=N/C(=O)c1ccc(Cl)c(F)c1)Nc1n[nH]c2cc(C(F)(F)F)ccc12` [Compound A-13], on F1F0-ATPase, the IC50 was below 5 µM. The EC50 in the test with Ramos cells lay in the range of 5 to 16 µM.
For `CC(C)CN/C(=N/C(=O)c1ccc(Cl)c(F)c1)Nc1n[nH]c2cc(C(F)(F)F)ccc12` [Compound A-14], the IC50 on F1F0-ATPase is below 5 µM. Besides, the EC50 in the test on Ramos cells was below 5 µM.
As for `CCOCCCN/C(=N/C(=O)c1ccc(Cl)c(F)c1)Nc1n[nH]c2cc(C(F)(F)F)ccc12` [Compound A-15], at F1F0-ATPase, the IC50 was below 5 µM. Also, the EC50 in the test with Ramos cells was below 5 µM.
In the case of `CCC(C)NC(=NC(=O)c1ccc(Cl)c(F)c1)Nc1n[nH]c2cc(C(F)(F)F)ccc12` (stereo not drawn) [Compound A-16], the IC50 on F1F0-ATPase is below 5 µM. Moreover, the EC50 in the test on Ramos cells (Homo sapiens) lay within 5 to 16 µM.
Consider `COC[C@H](C)N/C(=N/C(=O)c1ccc(Cl)c(F)c1)Nc1n[nH]c2cc(C(F)(F)F)ccc12` [Compound A-17], for which the IC50 on F1F0-ATPase was below 5 µM. In addition, the EC50 in the test on Ramos cells was above 16 µM.
Regarding `CC(C)N/C(=N/C(=O)c1ccc(Cl)c(F)c1)Nc1n[nH]c2cc(C(F)(F)F)ccc12` [Compound A-18], the IC50 on F1F0-ATPase is below 5 µM. Further, the EC50 in the test on Ramos cells is above 16 µM.
`O=C(/N=C(\Nc1n[nH]c2cc(C(F)(F)F)ccc12)NC1CCCC1)c1ccc(Cl)c(F)c1` [Compound A-19]: the IC50 at F1F0-ATPase was below 5 µM. In the test with Ramos cells (Homo sapiens), the EC50 was below 5 µM.
Turning to `CCOCCN/C(=N/C(=O)c1ccc(Cl)c(F)c1)Nc1n[nH]c2cc(C(F)(F)F)ccc12` [Compound A-20], on F1F0-ATPase, the IC50 was below 5 µM. In addition, the EC50 in the test with Ramos cells was above 16 µM.
For `O=C(/N=C(\Nc1n[nH]c2cc(C(F)(F)F)ccc12)NC1CCOCC1)c1ccc(Cl)c(F)c1` [Compound A-21], the IC50 at F1F0-ATPase was below 5 µM. For the same compound, in the test on Ramos cells (Homo sapiens), the EC50 was in the range of 5 to 16 µM.
As to `O=C(/N=C(/NCCOCCO)Nc1n[nH]c2cc(C(F)(F)F)ccc12)c1ccc(Cl)c(F)c1` [Compound A-22], on F1F0-ATPase, the IC50 was above 16 µM. Further, in the test on Ramos cells, the EC50 is above 16 µM.
On to `CC(C)(C)N/C(=N/C(=O)c1ccc(N2CCOCC2)nc1)Nc1n[nH]c2cc(C(F)(F)F)ccc12` [Compound A-23], for which the IC50 on F1F0-ATPase is below 5 µM. Moreover, the EC50 in the test on Ramos cells lay in the range of 5 to 16 µM.
Consider `CC(C)CN/C(=N/C(=O)c1ccc(N2CCOCC2)nc1)Nc1n[nH]c2cc(C(F)(F)F)ccc12` [Compound A-24], for which the IC50 on F1F0-ATPase was below 5 µM. For the same compound, the EC50 with Ramos cells is 5 to 16 µM.
As to `O=C(/N=C(\Nc1n[nH]c2cc(C(F)(F)F)ccc12)NC1CCC1)c1ccc(N2CCOCC2)nc1` [Compound A-25], the IC50 at F1F0-ATPase is below 5 µM. Also, the EC50 in the test on Ramos cells (Homo sapiens) was in the range of 5 to 16 µM.
In the case of `COC[C@H](C)N/C(=N/C(=O)c1ccc(N2CCOCC2)nc1)Nc1n[nH]c2cc(C(F)(F)F)ccc12` [Compound A-26], the IC50 on F1F0-ATPase was 5 to 16 µM. Also, the EC50 with Ramos cells is above 16 µM.
Consider `CC(C)(C)CNC(=NC(=O)c1ccc(N2CCOCC2)nc1)Nc1n[nH]c2cc(C(F)(F)F)ccc12` [Compound A-27], for which, at F1F0-ATPase, the IC50 was below 5 µM. Moreover, in the test with Ramos cells (Homo sapiens), the EC50 was above 16 µM.
Take `CC(C)(C)CNC(=NC(=O)c1ccc2nonc2c1)Nc1n[nH]c2cc(F)ccc12` [Compound A-28]: the IC50 on F1F0-ATPase fell in the range of 5 to 16 µM. In addition, in the test on Ramos cells (Homo sapiens), the EC50 is above 16 µM.
As for `CC(C)CN/C(=N/C(=O)c1ccc2nonc2c1)Nc1n[nH]c2cc(F)ccc12` [Compound A-29], the IC50 at F1F0-ATPase is below 5 µM. Also, in the test with Ramos cells, the EC50 was above 16 µM.
In the same order, the values of `CCOCCN/C(=N/C(=O)c1ccc2nonc2c1)Nc1n[nH]c2cc(F)ccc12` [Compound A-30] are above 16 µM and above 16 µM.
On to `CC(C)CN/C(=N/C(=O)c1ccc(F)c(F)c1)Nc1n[nH]c2cc(Cl)ccc12` [Compound A-31], for which, on F1F0-ATPase, the IC50 was below 5 µM. Besides, the EC50 in the test with Ramos cells was below 5 µM.
For `CC(C)(C)N/C(=N/C(=O)c1ccc(F)c(F)c1)Nc1n[nH]c2cncc(F)c12` [Compound A-32], the IC50 on F1F0-ATPase was below 5 µM. The EC50 in the test on Ramos cells lay in the range of 5 to 16 µM.
On to `COC[C@H](C)N/C(=N/C(=O)c1ccc(F)c(F)c1)Nc1n[nH]c2cncc(F)c12` [Compound A-33], for which the IC50 on F1F0-ATPase was above 16 µM. The EC50 in the test with Ramos cells is above 16 µM.
Consider `CC(C)(C)N/C(=N/C(=O)c1ccc(F)c(F)c1)Nc1n[nH]c2ccccc12` [Compound A-34], for which the IC50 at F1F0-ATPase was in the range of 5 to 16 µM. In addition, in the test on Ramos cells, the EC50 fell in the range of 5 to 16 µM.
For `CC(C)CN/C(=N/C(=O)c1ccc(F)c(F)c1)Nc1n[nH]c2ccccc12` [Compound A-35], the IC50 on F1F0-ATPase was above 16 µM. The EC50 in the test on Ramos cells was above 16 µM.
As to `CC(C)(C)CNC(=NC(=O)c1ccc(F)c(F)c1)Nc1n[nH]c2ccccc12` [Compound A-36], on F1F0-ATPase, the IC50 is below 5 µM. In addition, the EC50 in the test with Ramos cells (Homo sapiens) is below 5 µM.
For `COC[C@H](C)N/C(=N/C(=O)c1ccc(F)c(F)c1)Nc1n[nH]c2ccccc12` [Compound A-37], the IC50 on F1F0-ATPase fell in the range of 5 to 16 µM. For the same compound, the EC50 in the test with Ramos cells is above 16 µM.
Take `CCOCCN/C(=N/C(=O)c1ccc(F)c(F)c1)Nc1n[nH]c2ccccc12` [Compound A-38]: the IC50 on F1F0-ATPase is above 16 µM. The EC50 with Ramos cells was above 16 µM.
As for `CC1(CN/C(=N/C(=O)c2ccc(F)c(F)c2)Nc2n[nH]c3ccccc23)COC1` [Compound A-39], the IC50 at F1F0-ATPase lay in the range of 5 to 16 µM. Also, the EC50 in the test on Ramos cells was above 16 µM.
For `CC(C)(C)N/C(=N/C(=O)c1ccc(F)c(F)c1)Nc1n[nH]c2cncc(Cl)c12` [Compound A-40] the same measures were below 5 µM and below 5 µM.
As for `CC(C)CN/C(=N/C(=O)c1ccc(F)c(F)c1)Nc1n[nH]c2cncc(Cl)c12` [Compound A-41], the IC50 at F1F0-ATPase is below 5 µM. Also, in the test on Ramos cells, the EC50 is below 5 µM.
Consider `CC(C)(C)CN/C(=N/C(=O)c1ccc(F)c(F)c1)Nc1n[nH]c2cncc(Cl)c12` [Compound A-42], for which, at F1F0-ATPase, the IC50 is below 5 µM. Moreover, the EC50 in the test on Ramos cells was in the range of 5 to 16 µM.
As to `COCC(C)NC(=NC(=O)c1ccc(F)c(F)c1)Nc1n[nH]c2cncc(Cl)c12` (stereo not drawn) [Compound A-43], the IC50 on F1F0-ATPase is above 16 µM. In addition, the EC50 with Ramos cells (Homo sapiens) was above 16 µM.
Regarding `CCOCCN/C(=N/C(=O)c1ccc(F)c(F)c1)Nc1n[nH]c2cncc(Cl)c12` [Compound A-44], the IC50 on F1F0-ATPase is above 16 µM. The EC50 with Ramos cells was above 16 µM.
